Data: PubChem BioAssay (NCI)
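Grown in 96-well plates, cells were treated for 48 hours with each compound at five concentrations. Insufficient inhibition: endpoint recorded as highest concentration tested. TGI marks complete inhibition of growth.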

Experiments:
Assay in all cases: NCI-60 cell line screen, 48 h
[1] = tested on: CCRF-CEM leukemia
[2] = tested on: COLO 205 colon
[3] = tested on: KM12 colon
[4] = tested on: LOX IMVI melanoma
[5] = tested on: MDA-MB-435
[6] = tested on: NCI-H23 lung
[7] = tested on: NCI-H460 lung
[8] = tested on: OVCAR-3 ovarian
[9] = tested on: OVCAR-8 ovarian
[10] = tested on: UACC-62 melanoma
[11] = tested on: SNB-75 CNS

| Compound | TGI [1] | TGI [2] | TGI [3] | TGI [4] | TGI [5] | TGI [6] | TGI [7] | TGI [8] | TGI [9] | TGI [10] | TGI [11] |
| --- | --- | --- | --- | --- | --- | --- | --- | --- | --- | --- | --- |
| CCCCc1ccc(Nc2nc3c(ncn3C3OC(COC(C)=O)C(OC(C)=O)C3OC(C)=O)c(=O)[nH]2)cc1 (stereo unspecified) | 35.1 µM | 37.7 µM | 35.2 µM | 36 µM | 34.5 µM | 32.5 µM | 32.7 µM | 31.6 µM | 34.7 µM | 34.7 µM | – |
| CC(C)(C)OC(=O)N1C(C2=COc3ccccc3O2)=COc2ccccc21 | – | 38.2 µM | > 100 µM | 37.3 µM | > 100 µM | 95.1 µM | > 100 µM | 47.2 µM | > 100 µM | 32.6 µM | > 100 µM |
| CC(=O)OCC1C(C(C)OC(C)=O)CCC2C1CCC1(C)C(OC(C)=O)CCC21 (stereo unspecified) | 42.6 µM | – | 31.3 µM | 27.9 µM | 34.6 µM | 76.1 µM | 31.8 µM | 41.9 µM | 46.2 µM | 26.3 µM | – |
| Cc1ccc2nc3c(C(=O)NCCN(C)C)cccc3cc2c1 | 5.28 µM | 3.25 µM | 12.6 µM | 6.4 µM | – | 4.21 µM | 2.36 µM | 5.83 µM | 4.87 µM | 6.77 µM | 8.26 µM |
| C#CCNC(=O)CCC(N)C(=O)O (stereo unspecified) | > 100 µM | > 100 µM | > 100 µM | > 100 µM | – | > 100 µM | > 100 µM | > 100 µM | > 100 µM | > 100 µM | > 100 µM |
| O=[N+]([O-])c1cc2n[nH]nc2c2nonc12 | 59.9 µM | 71.5 µM | > 100 µM | > 100 µM | 30.1 µM | 83.3 µM | > 100 µM | 95.1 µM | 58.1 µM | – | > 100 µM |
| C=C1CC(OC(C)=O)/C=C(/C)CCC(C(C)(C)O)CC1O (stereo unspecified) | > 100 µM | > 100 µM | > 100 µM | > 100 µM | > 100 µM | > 100 µM | > 100 µM | > 100 µM | > 100 µM | > 100 µM | – |
| COC1/C=C\C=C(/C)C(=O)NC2=CC(=O)C=C(C2=O)C(OC)C(C)CC(OC)C(OC)C(C)/C=C(/C)C1OC(N)=O (stereo unspecified) | 1.85 µM | 11.4 µM | 20.1 µM | 13.8 µM | – | 16 µM | 27.2 µM | 7.23 µM | 5.62 µM | 15.7 µM | 31.6 µM |
| Oc1c(C(O)(c2ccccc2)c2ccc3ccccc3c2O)ccc2ccccc12 | – | 31.9 µM | 25.4 µM | 31.3 µM | 40.6 µM | 23.1 µM | 22.3 µM | 30.8 µM | 29.7 µM | 22.8 µM | 34.5 µM |
| Nc1[nH]c(=O)nc2sc3c(c12)CCCC3 | > 100 µM | > 100 µM | > 100 µM | – | – | > 100 µM | > 100 µM | – | > 100 µM | > 100 µM | 64.4 µM |
| NS(=O)(=O)c1nnc(NC(=O)CCC(=O)O)s1 | – | > 100 µM | > 100 µM | > 100 µM | > 100 µM | > 100 µM | > 100 µM | > 100 µM | > 100 µM | > 100 µM | – |
